Starred links: 1 amine or outer side, 2 acyl side, 3 side chain; linkers in the order of their positions; H or OH if unused. Positions of bridges follow the written chain, without caps; N, C: chain ends. Non-standard residues stand in square brackets, D forms with d. Residues, ends and D or L forms follow the SMILES beside them. Groups on a side chain read outwards from the residue. *: point of attachment. Glutaryl(2-isohexyl,5-OMe) = COC(=O)CCC(CCCC(C)C)C(=O)*; Phe(4-CF3) = N[C@@H](Cc1ccc(C(F)(F)F)cc1)C(=O)O; C18 diacid = O=C(O)CCCCCCCCCCCCCCCCC(=O)*; dDip = N[C@@H](C(=O)O)C(c1ccccc1)c1ccccc1; Lys(Me3) = C[N+](C)(C)CCCC[C@H](N)C(=O)O; Dip = N[C@H](C(=O)O)C(c1ccccc1)c1ccccc1; γGlu = O=C(O)[C@H](CCC(=O)[*:2])N[*:1]; Pro(3R-OH) = O=C(O)[C@H]1NCC[C@H]1O; Palmitoyl = CCCCCCCCCCCCCCCC(=O)*; β3hF = N[C@H](CC(=O)O)Cc1ccccc1; NMeK = CN[C@@H](CCCCN)C(=O)O; Pen = CC(C)(S)[C@H](N)C(=O)O; dNMeK = CN[C@H](CCCCN)C(=O)O; Isovaleryl = CC(C)CC(=O)*; NMeC = CN[C@@H](CS)C(=O)O; hCys = N[C@@H](CCS)C(=O)O; Dap = NC[C@H](N)C(=O)O; AEEA = NCCOCCOCC(=O)O; Ahx = NCCCCCC(=O)O A value given as a limit tells only on which side of the number the result lay.

For the first test, the target named is T1, ferroportin (Homo sapiens, UniProt Q9NP59).
T1 sequence (Q9NP59 1-571): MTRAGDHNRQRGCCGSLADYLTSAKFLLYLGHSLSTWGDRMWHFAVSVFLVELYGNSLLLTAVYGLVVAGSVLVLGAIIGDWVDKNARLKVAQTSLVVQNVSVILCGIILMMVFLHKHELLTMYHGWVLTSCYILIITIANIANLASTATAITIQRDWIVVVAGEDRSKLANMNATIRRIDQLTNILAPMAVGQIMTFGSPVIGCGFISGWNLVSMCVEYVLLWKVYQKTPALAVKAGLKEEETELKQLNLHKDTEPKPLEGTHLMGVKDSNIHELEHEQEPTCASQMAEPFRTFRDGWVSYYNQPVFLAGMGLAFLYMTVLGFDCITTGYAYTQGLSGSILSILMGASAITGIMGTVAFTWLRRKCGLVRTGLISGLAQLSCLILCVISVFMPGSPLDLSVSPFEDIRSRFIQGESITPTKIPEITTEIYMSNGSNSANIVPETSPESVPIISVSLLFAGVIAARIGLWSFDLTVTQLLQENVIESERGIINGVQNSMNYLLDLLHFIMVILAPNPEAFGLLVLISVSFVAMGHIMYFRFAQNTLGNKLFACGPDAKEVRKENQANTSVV
Briefly: FPN activity assay: ferroportin-GFP internalization/degradation in HEK293 cells. The settings on record: Table 6D; ferroportin-GFP internalization/degradation, at least 18 hours incubation; read-out: FPN IC50. More on the design: expressed in transfected cells. Type of test: cell-based. Here is the method: Following internalization, the ferroporin protein is degraded.
A retro inverse peptide is a peptide with a reversed sequence in all D amino acids. An example is that Hy-Glu-Thr-His-NH2 becomes Hy-DHis-DThr-DGlu-NH2. The EC50 of these reference compounds for ferroportin internalization/degradation was determined according to the FPN activity assay described above. These peptides served as control standards.
In the case of `CCCCCCCCCCCCCCCC(=O)NCC[N+](C)(C)CC(=O)NCCCC[C@H](NC(=O)[C@@H]1CSSC[C@H](NC(=O)[C@H](CCC(=O)OC)NC(=O)CC(C)C)C(=O)N[C@@H](Cc2c[nH]cn2)C(=O)N[C@@H](C(c2ccccc2)c2ccccc2)C(=O)N1)C(=O)NCCCCC` [compound 123], the DC50 was more than 500 nM.

The same test, now with this note: Table 6E; ferroportin-GFP internalization/degradation, at least 18 hours incubation; read-out: FPN IC50.
For `CC(C)CC(=O)N[C@@H](CCC(=O)O)C(=O)N[C@H](C(=O)N[C@@H](Cc1c[nH]cn1)C(=O)N[C@H](C(=O)N1CCC[C@H]1C(=O)N[C@H]1CSSC[C@@H](C(=O)N[C@@H](CCCC[N+](C)(C)C)C(=O)N[C@@H](C(N)=O)C(c2ccccc2)c2ccccc2)NC1=O)C(c1ccccc1)c1ccccc1)[C@@H](C)O` [compound 140] (Isovaleryl-ETH[Dip]PCC[Lys(Me3)][dDip]-NH2; disulfide 6-7), the DC50 was 10 to 100 nM. The same measure, in the same setting: under `COC(=O)CCC(CCCC(C)C)C(=O)N[C@H](C(=O)N[C@@H](Cc1c[nH]cn1)C(=O)N[C@H](C(=O)N1CCC[C@H]1C(=O)N[C@H]1CSSC[C@@H](C(=O)N[C@H](CCCCN)C(=O)N[C@H](C(=O)N[C@H](CCCCN)C(N)=O)C(c2ccccc2)c2ccccc2)NC1=O)C(c1ccccc1)c1ccccc1)[C@@H](C)O` (stereo partly drawn) [compound 135] ({Glutaryl(2-isohexyl,5-OMe)}-TH[Dip]PCC[dK][Dip][dK]-NH2; disulfide 5-6) stands 100 to 500 nM; under `CCCCCCCCCCCCCCCC(=O)NCCCCCC(=O)NCCCC[C@@H](C(=O)N[C@H](C(=O)N[C@H](CCCCN)C(N)=O)C(c1ccccc1)c1ccccc1)N(C)C(=O)[C@@H]1CSSC[C@H](NC(=O)[C@@H]2CCCN2C(=O)[C@@H](NC(=O)[C@H](Cc2c[nH]cn2)NC(=O)[C@@H]2[C@H](O)CCN2C(=O)[C@H](CCC(=O)O)NC(=O)CC(C)C)C(c2ccccc2)c2ccccc2)C(=O)N1` [compound 174] (Isovaleryl-E[Pro(3R-OH)]H[Dip]PCC[NMeK]([Ahx-Palmitoyl])[Dip][dK]-NH2; disulfide 6-7), 10 to 100 nM.

The same test, now with this note: ferroportin-GFP HEK293 cells, at least 18 hours; read-out: FPN IC50.
With `CCCCCCCCCCCCCCCC(=O)NCCCCCC(=O)NCCCC[C@H](NC(=O)[C@@H](NC(=O)[C@@H]1CCSSCC[C@H](NC(C)=O)C(=O)N[C@@H](CCC(=O)O)C(=O)N[C@@H]([C@@H](C)O)C(=O)N[C@@H](Cc2c[nH]cn2)C(=O)N[C@@H](C(c2ccccc2)c2ccccc2)C(=O)N2CCC[C@H]2C(=O)N1)[C@@H](C)CC)C(=O)N[C@H](CC(N)=O)Cc1ccccc1` [Compd 14] (Ac-[hCys]ETH[Dip]P[hCys]IK([Ahx-Palmitoyl])[β3hF]-NH2; disulfide 1-7), the DC50 was 100 to 500 nM. `CCCCCCCCCCCCCCCC(=O)NCCCCCC(=O)NCCCC[C@H](NC(=O)C[C@H](Cc1ccccc1)NC(=O)[C@H]1CSSC[C@@H](NC(=O)CC(C)C)C(=O)N[C@@H]([C@@H](C)O)C(=O)N[C@@H](Cc2c[nH]cn2)C(=O)N[C@@H](C(c2ccccc2)c2ccccc2)C(=O)N2CCC[C@H]2C(=O)N[C@@H](C)C(=O)N[C@@H]([C@@H](C)CC)C(=O)N1)C(=O)N[C@H](CCCCN)C(N)=O` [compound 105] (Isovaleryl-[dC]TH[Dip]PAI[dC][β3hF]K([Ahx-Palmitoyl])[dK]-NH2; disulfide 1-8): the DC50 lay in the range of 10 to 100 nM.

With `CC[C@H](C)[C@H](NC(=O)[C@@H]1CSSC[C@H](NC(=O)[C@@H](NC(=O)[C@H](Cc2c[nH]cn2)NC(=O)[C@@H](NC(=O)[C@H](CCC(=O)O)NC(=O)CC(C)C)[C@@H](C)O)C(c2ccccc2)c2ccccc2)C(=O)N1)C(=O)N[C@H](CCCCN)C(=O)N[C@H](CC(=O)N[C@@H](CCCCNC(=O)COCCOCCNC(=O)COCCOCCNC(=O)CC[C@H](NC(=O)CCCCCCCCCCCCCCCCC(=O)O)C(=O)O)C(=O)N[C@H](CCCCN)C(N)=O)Cc1ccccc1` [Compd 34] (Isovaleryl-ETH[Dip]CCI[dK][β3hF]K([AEEA-AEEA-γGlu-C18 diacid])[dK]-NH2; disulfide 5-6), the DC50 is 100 to 500 nM.

As to `CCCCCCCCCCCCCCCC(=O)NCCCCCC(=O)NCCCC[C@H](NC(=O)[C@@H](NC(=O)[C@@H]1CSSC(C)(C)[C@H](N)C(=O)N[C@@H](CCC(=O)O)C(=O)N[C@@H]([C@@H](C)O)C(=O)N[C@@H](Cc2c[nH]cn2)C(=O)N[C@@H](C(c2ccccc2)c2ccccc2)C(=O)N2CCC[C@H]2C(=O)N1)[C@@H](C)CC)C(=O)N[C@H](CC(N)=O)Cc1ccccc1` [Compd 11] (H-[Pen]ETH[Dip]PCIK([Ahx-Palmitoyl])[β3hF]-NH2; disulfide 1-7), the DC50 was more than 500 nM. Take `CCCCCCCCCCCCCCCC(=O)NCCCCCC(=O)NCCCC[C@H](NC(=O)[C@@H](NC(=O)[C@@H]1CCSSCC[C@H](NC(=O)CC(C)C)C(=O)N[C@@H](CCC(=O)O)C(=O)N[C@@H]([C@@H](C)O)C(=O)N[C@@H](Cc2c[nH]cn2)C(=O)N[C@@H](C(c2ccccc2)c2ccccc2)C(=O)N2CCC[C@H]2C(=O)N1)[C@@H](C)CC)C(=O)N[C@H](CC(N)=O)Cc1ccccc1` [Compd 15] (Isovaleryl-[hCys]ETH[Dip]P[hCys]IK([Ahx-Palmitoyl])[β3hF]-NH2; disulfide 1-7): the DC50 is more than 500 nM.

Consider `CCCCCCCCCCCCCCCC(=O)NCCCCCC(=O)NCCCC[C@H](NC(=O)C[C@H](Cc1ccccc1)NC(=O)[C@@H]1CCSSC[C@H](NC(=O)CC(C)C)C(=O)N[C@@H]([C@@H](C)O)C(=O)N[C@@H](Cc2c[nH]cn2)C(=O)N[C@@H](C(c2ccccc2)c2ccccc2)C(=O)N2CCC[C@H]2C(=O)N[C@@H](C)C(=O)N[C@@H]([C@@H](C)CC)C(=O)N1)C(=O)N[C@H](CCCCN)C(N)=O` [compound 108] (Isovaleryl-CTH[Dip]PAI[hCys][β3hF]K([Ahx-Palmitoyl])[dK]-NH2; disulfide 1-8), for which the DC50 was 10 to 100 nM. The same measure, in the same setting: the value for `CC[C@H](C)[C@H](NC(=O)[C@@H]1CSSC[C@H](NC(=O)[C@H](Cc2c[nH]cn2)NC(=O)[C@@H](NC(=O)[C@H](CCC(=O)O)NC(=O)CC(C)C)[C@@H](C)O)C(=O)N2CCC[C@H]2C(=O)N1)C(=O)N[C@H](CCCCN)C(=O)N[C@H](CC(=O)N[C@@H](CCCCNC(=O)COCCOCCNC(=O)COCCOCCNC(=O)CC[C@H](NC(=O)CCCCCCCCCCCCCCCCC(=O)O)C(=O)O)C(=O)N[C@H](CCCCN)C(N)=O)Cc1ccccc1` [Compd 33] (Isovaleryl-ETHCPCI[dK][β3hF]K([AEEA-AEEA-γGlu-C18 diacid])[dK]-NH2; disulfide 4-6) was more than 500 nM.

The test is the same for the next values; noted with them: ferroportin-GFP internalization/degradation, HEK293 cells; Table 6E; read-out: FPN IC50.
Regarding `CC(=O)NCCCC[C@H](C(N)=O)N(C)C(=O)C[C@H](Cc1ccccc1)NC(=O)[C@H](CCCCNC(=O)COCCOCCNC(=O)COCCOCCNC(=O)[C@H](CN)NC(=O)CCCCCCCCCCCCCCCCC(=O)O)N(C)C(=O)[C@@H]1CSSC[C@H](NC(=O)[C@@H]2CCCN2C(=O)[C@@H](NC(=O)[C@H](Cc2c[nH]cn2)NC(=O)[C@@H](NC(=O)[C@H](CCC(=O)O)NC(=O)CC(C)C)[C@@H](C)O)C(c2ccccc2)c2ccccc2)C(=O)N1` [compound 267] (Isovaleryl-ETH[Dip]PCC[NMeK]([AEEA-AEEA-Dap-C18 diacid])[β3hF][dNMeK](Ac)-NH2; disulfide 6-7), the DC50 was 100 to 500 nM. Still for that read-out and setting: the value for `CC(C)CC(=O)N[C@@H](CCC(=O)O)C(=O)N[C@H](C(=O)N[C@@H](Cc1c[nH]cn1)C(=O)N[C@H](C(=O)N1CCC[C@H]1C(=O)N[C@H]1CSSC[C@@H](C(=O)N(C)[C@@H](CCCCNC(=O)COCCOCCNC(=O)COCCOCCNC(=O)[C@H](CN)NC(=O)CCCCCCCCCCCCCCCCC(=O)O)C(=O)N[C@H](CC(=O)N[C@H](CCCCN)C(N)=O)Cc2ccccc2)N(C)C1=O)C(c1ccccc1)c1ccccc1)[C@@H](C)O` [compound 278] (Isovaleryl-ETH[Dip]PC[NMeC][NMeK]([AEEA-AEEA-Dap-C18 diacid])[β3hF][dK]-NH2; disulfide 6-7) was 10 to 100 nM; that for `CC(C)CC(=O)N[C@@H](CCC(=O)O)C(=O)N[C@H](C(=O)N[C@@H](Cc1c[nH]cn1)C(=O)N[C@H](C(=O)N1CCC[C@H]1C(=O)N[C@@H]1C(=O)N[C@H](C(=O)N[C@@H](CCCCNC(=O)COCCOCCNC(=O)COCCOCCNC(=O)[C@H](CN)NC(=O)CCCCCCCCCCCCCCCCC(=O)O)C(=O)N[C@H](CC(=O)N[C@H](CCCCN)C(N)=O)Cc2ccccc2)C(C)(C)SSC1(C)C)C(c1ccccc1)c1ccccc1)[C@@H](C)O` [compound 274] (Isovaleryl-ETH[Dip]P[Pen][Pen]K([AEEA-AEEA-Dap-C18 diacid])[β3hF][dK]-NH2; disulfide 6-7) was 10 to 100 nM; that for `CC(C)CC(=O)N[C@@H](CCC(=O)O)C(=O)N[C@H](C(=O)N[C@@H](Cc1ccc(C(F)(F)F)cc1)C(=O)N[C@H](C(=O)N1CCC[C@H]1C(=O)N[C@H]1CSSC[C@@H](C(=O)N(C)[C@@H](CCCCNC(=O)COCCOCCNC(=O)COCCOCCNC(=O)[C@H](CN)NC(=O)CCCCCCCCCCCCCCCCC(=O)O)C(=O)N[C@H](CC(=O)N[C@H](CCCCN)C(N)=O)Cc2ccccc2)NC1=O)C(c1ccccc1)c1ccccc1)[C@@H](C)O` [compound 286] (Isovaleryl-ET[Phe(4-CF3)][Dip]PCC[NMeK]([AEEA-AEEA-Dap-C18 diacid])[β3hF][dK]-NH2; disulfide 6-7) was 100 to 500 nM.

(Values after patent US20250277012A1 (Protagonist Therapeutics, Inc., priority 2021, published 2025).)
